Laboratory results reported in ChEMBL document CHEMBL1153522, “Spirocyclic delta opioid receptor agonists for the treatment of pain: discovery of N,N-diethyl-3-hydroxy-4-(spiro[chromene-2,4'-piperidine]-4-yl) benzamide (ADL5747)” (J Med Chem, 2009).

Columns and labels:
Canis familiaris = organism: Canis familiaris; experiment: Plasma concentration in Beagle dog after 15 to 30 mins; type: ADME, organism-based, Canis lupus familiaris; conditions: in vivo
CYP3A4 = experiment: In vitro stability in presence of human CYP3A4 assessed as compound remaining at 1 uM after 1 hr; type: ADME; conditions: read-out: Stability
[1] = AUC (0 to infinity) in rat at 10 mg/kg, po administered as single dose; type: ADME, organism-based; design: time infinity, dose 10 mg/kg, route oral; conditions: plasma
[2] = Volume of distribution at steady state in rat at 2.5 mg/kg, iv administered as single dose; type: ADME, organism-based; design: dose 2.5 mg/kg, route intravenous; conditions: in vivo, read-out: Vdss
[3] = AUC in rat plasma at 30 mg/kg, po administered as single dose after 6 hrs; type: ADME, organism-based; design: time < 6 hr, dose 30 mg/kg, route oral
[4] = Cmax in rat at 10 mg/kg, po administered as single dose; type: ADME, organism-based; design: dose 10 mg/kg, route oral; conditions: in vivo
[5] = Metabolic stability in rat liver microsomes assessed as compound remaining after 30 mins; type: ADME, Microsome; conditions: read-out: Stability
[6] = Metabolic stability in human liver microsomes assessed as compound remaining after 30 mins; type: ADME, Microsome; conditions: read-out: Stability
[7] = Half life in Beagle dog at 1 mg/kg, iv administered as single dose; type: ADME, organism-based, Canis lupus familiaris; design: dose 1 mg/kg, route intravenous; conditions: in vivo
[8] = Half life in rat at 10 mg/kg, po administered as single dose; type: ADME, organism-based; design: dose 10 mg/kg, route oral; conditions: in vivo
[9] = Tmax in Beagle dog at 3 mg/kg, po administered as single dose; type: ADME, organism-based, Canis lupus familiaris; design: dose 3 mg/kg, route oral; conditions: in vivo
[10] = Metabolic stability in Beagle dog liver microsomes assessed as compound remaining after 30 mins; type: ADME, Canis lupus familiaris, Microsome; conditions: read-out: Stability
[11] = AUC (0 to infinity) in Beagle dog at 1 mg/kg, iv administered as single dose; type: ADME, organism-based, Canis lupus familiaris; design: time infinity, dose 1 mg/kg, route intravenous; conditions: plasma
[12] = AUC (0 to infinity) in rat at 2.5 mg/kg, iv administered as single dose; type: ADME, organism-based; design: time infinity, dose 2.5 mg/kg, route intravenous; conditions: plasma
[13] = Half life in rat at 2.5 mg/kg, iv administered as single dose; type: ADME, organism-based; design: dose 2.5 mg/kg, route intravenous; conditions: in vivo
CYP2D6 = experiment: In vitro stability in presence of human CYP2D6 assessed as compound remaining at 1 uM after 1 hr; type: ADME; conditions: read-out: Stability
[14] = Systemic clearance in Beagle dog at 1 mg/kg, iv administered as single dose; type: ADME, organism-based, Canis lupus familiaris; design: dose 1 mg/kg, route intravenous; conditions: in vivo
[15] = Tmax in rat at 10 mg/kg, po administered as single dose; type: ADME, organism-based; design: dose 10 mg/kg, route oral; conditions: in vivo
[16] = Volume of distribution at steady state in Beagle dog at 1 mg/kg, iv administered as single dose; type: ADME, organism-based, Canis lupus familiaris; design: dose 1 mg/kg, route intravenous; conditions: in vivo, read-out: Vdss
[17] = Oral bioavailability in rat at 10 mg/kg administered as single dose; type: ADME, organism-based; conditions: in vivo
[18] = Cmax in Beagle dog at 3 mg/kg, po administered as single dose; type: ADME, organism-based, Canis lupus familiaris; design: dose 3 mg/kg, route oral; conditions: in vivo
CYP2C19 = experiment: In vitro stability in presence of human CYP2C19 assessed as compound remaining at 1 uM after 1 hr; type: ADME; conditions: read-out: Stability
[19] = AUC in rat brain raphe magnus at 30 mg/kg, po administered as single dose after 6 hrs; type: ADME, organism-based; design: dose 30 mg/kg, route oral; conditions: read-out: Drug uptake
Rattus norvegicus = experiment: fAUC in rat plasma at 30 mg/kg, po administered as single dose after 6 hrs; type: ADME, organism-based; design: dose 30 mg/kg, route oral; conditions: in vivo
[20] = Systemic clearance in rat at 2.5 mg/kg, iv administered as single dose; type: ADME, organism-based; design: dose 2.5 mg/kg, route intravenous; conditions: in vivo
[21] = Oral bioavailability in Beagle dog at 3 mg/kg administered as single dose; type: ADME, organism-based, Canis lupus familiaris; conditions: in vivo
[22] = AUC (0 to infinity) in Beagle dog at 3 mg/kg, po administered as single dose; type: ADME, organism-based, Canis lupus familiaris; design: time infinity, dose 3 mg/kg, route oral; conditions: plasma
[23] = Half life in Beagle dog at 3 mg/kg, po administered as single dose; type: ADME, organism-based, Canis lupus familiaris; design: dose 3 mg/kg, route oral; conditions: in vivo

Question: What does the source list for `CCN(CC)C(=O)c1ccc(C2=CC3(CCNCC3)Oc3ccccc32)c(O)c1` [ADL-5747 FREE BASE]?
Answer: Cp (Canis familiaris): 808 ng/mL; remaining at 1 h, 1 µM (CYP3A4): 22.5%; AUC(0-inf) [1]: 1150 ng·h/mL; Vd [2]: 18.1 L/kg; AUC at 6 h [3]: 4610 ng·h/mL; Cmax [4]: 246 ng/mL; remaining at 0.5 h [5]: 59.7%; remaining at 0.5 h [6]: 94.5%; half-life [7]: 12.2 h; half-life [8]: 4.9 h; Tmax [9]: 0.4 h; remaining at 0.5 h [10]: 63.9%; AUC(0-inf) [11]: 2640 ng·h/mL; AUC(0-inf) [12]: 780 ng·h/mL; half-life [13]: 5.3 h; remaining at 1 h, 1 µM (CYP2D6): 63.2%; clearance [14]: 6.33 mL/min/kg; Tmax [15]: 1.3 h; Vd [16]: 5.1 L/kg; bioavailability [17]: 37.6%; Cmax [18]: 852 ng/mL; remaining at 1 h, 1 µM (CYP2C19): 78.4%; AUC at 6 h [19]: 105 ng·h/mL; fAUC (Rattus norvegicus): 990 ng·h/mL; clearance [20]: 55 mL/min/kg; bioavailability [21]: 54.5%; AUC(0-inf) [22]: 4200 ng·h/mL; half-life [23]: 7.7 h
